Data on 23 compounds can be found in patent publication US20100317607A1, “USE OF COMPOUNDS FOR PREPARING ANTI-TUBERCULOSIS AGENTS” (INFECTIOUS DISEASE RESEARCH INSTITUTE, priority 2007, published 2010).

For test [1], the system named is non replicating phase of M. tuberculosis (H37Rv with a plasmid with an acetimidase promoter driving a luciferase gene). The test can be described thus: microbe, parasite or virus in culture. Conditions: non replicating M. tuberculosis H37Rv luciferase strain; for MIC: Mycobacterium tuberculosis, read-out: LORA (TB growth inhibition, MIC). The format is cell-based.
Test [2] relates to H37Rv strain of M. tuberculosis. As to the kind of experiment: Alamar Blue Susceptibility Test (MABA). The format is cell-based. Conditions: Mycobacterium tuberculosis; H37Rv strain of M. tuberculosis; Alamar Blue; read-out: MABA (TB growth inhibition, colourimetric assay).

Values after ≈ are worked out from the molar mass of the structure shown. Structures can show the parent of a compound that is named as a salt.

As for `COC(=O)c1ccc(CNc2nc(N3CCCCC3)nc3ccccc23)cc1` [Compound 93, Methyl 4-((2-(piperidin-1-yl)quinazolin-4-ylamino)methyl)benzoate], the MIC in test [1] is 50 to 128 µM (≈ 18.8 to 48.2 µg/mL); in test [2], under 10 µM.
For `C[C@@H](Nc1nc(N2CCCCC2)nc2ccccc12)c1ccc(Cl)cc1` [Compound 96, (R)—N-(1-(4-Chlorophenyl)ethyl)-2-(piperidin-1-yl)quinazolin-4-amine hydrochloride] the same measures were 10 to 50 µM and under 10 µM.
`C[C@@H](Nc1nc(N2CCCCC2)nc2ccccc12)c1ccc(F)cc1` [Compound 98, (R)—N-(1-(4-Fluorophenyl)ethyl)-2-(piperidin-1-yl)quinazolin-4-amine hydrochloride]: the figures for the MIC in test [1] and in test [2] were 10 to 50 µM and under 10 µM, respectively.
For `C[C@@H](Nc1nc(N2CCCCC2)nc2ccccc12)c1cccc2ccccc12` [Compound 99, (R)—N-(1-(Naphthalen-1-yl)ethyl)-2-(piperidin-1-yl)quinazolin-4-amine hydrochloride] the same measures were 10 to 50 µM and under 10 µM.
As to `C[C@@H](Nc1nc(N2CCCCC2)nc2ccccc12)c1ccc2ccccc2c1` [Compound 100, (R)—N-(1-(Naphthalen-2-yl)ethyl)-2-(piperidin-1-yl)quinazolin-4-amine hydrochloride], the MIC in test [1] is 10 to 50 µM; in test [2], under 10 µM.
As for `FC(F)(F)c1ccc(CCNc2nc(N3CCCCC3)nc3ccccc23)cc1` [Compound 105, 2-(Piperidin-1-yl)-N-(4-(trifluoromethyl)phenethyl)quinazolin-4-amine], the MIC in test [1] and in test [2] was under 10 µM in each case.
For the compound `Clc1ccc(CNc2nc(N3CCc4ccccc4C3)nc3ccccc23)cc1` [Compound 106, N-(4-Chlorobenzyl)-2-(3,4-dihydroisoquinolin-2(1H)-yl)quinazolin-4-amine hydrochloride], the MIC in test [1] and in test [2] was under 10 µM throughout.
With `Clc1ccc(CNc2nc(N3CCCCC3)c3ccccc3n2)c(Cl)c1` [Compound 112, N-(2,4-Dichlorobenzyl)-4-(piperidin-1-yl)quinazolin-2-amine hydrochloride], the MIC in test [1] and in test [2] was under 10 µM each time.
For the compound `FC(F)(F)c1ccc(CNc2nc(N3CCc4ccccc4C3)nc3ccccc23)cc1` [Compound 114, 2-(3,4-Dihydroisoquinolin-2(1H)-yl)-N-(4-(trifluoromethyl)benzyl)quinazolin-4-amine hydrochloride], the MIC in test [1] and in test [2] was under 10 µM in each case.
For the compound `Fc1ccc(CNc2nc(N3CCCCC3)nc3ccccc23)c(F)c1` [Compound 115, N-(2,4-Difluorobenzyl)-2-(piperidin-1-yl)quinazolin-4-amine hydrochloride], the MIC was 10 to 50 µM in test [1] and under 10 µM in test [2].
For the compound `Fc1ccc(CNc2nc(N3CCCCC3)nc3ccccc23)cc1F` [Compound 116, N-(3,4-Difluorobenzyl)-2-(piperidin-1-yl)quinazolin-4-amine hydrochloride], the MIC in test [1] is 10 to 50 µM; in test [2], under 10 µM.
The matching figures for `C[C@@H](Nc1nc(N2CCCCC2)nc2ccccc12)c1ccc(C(F)(F)F)cc1` [Compound 117, (R)-2-(Piperidin-1-yl)-N-(1-(4-(trifluoromethyl)phenyl)ethyl)quinazolin-4-amine]: under 10 µM and under 10 µM.
For `CC(C)(Nc1nc(N2CCCCC2)nc2ccccc12)c1ccc(F)cc1` [Compound 120, N-(2-(4-Fluorophenyl)propan-2-yl)-2-(piperidin-1-yl)quinazolin-4-amine] the same measures were 10 to 50 µM (≈ 3.64 to 18.2 µg/mL) and under 10 µM.
As for `CCC(CC)(Nc1nc(N2CCCC2)nc2ccccc12)c1ccccc1` [Compound 124, N-(3-Phenylpentan-3-yl)-2-(pyrrolidin-1-yl)quinazolin-4-amine], the MIC in test [1] was 10 to 50 µM (≈ 3.61 to 18 µg/mL); in test [2] it was under 10 µM.
On to `Clc1ccc(CNc2nc(NCc3ccccc3)c3ccccc3n2)cc1` [Compound 127, N^4-Benzyl-N^2-(4-chlorobenzyl)quinazoline-2,4-diamine hydrochloride], for which the MIC in test [1] and in test [2] was under 10 µM each time.
As for `FC(F)(F)c1ccc(CNc2nc(NCc3ccccc3)c3ccccc3n2)cc1` [Compound 128, N^4-Benzyl-N^2-(4-(trifluoromethyl)benzyl)quinazoline-2,4-diamine hydrochloride], the MIC in test [1] and in test [2] was under 10 µM throughout.
As for `c1ccc(CNc2nc(N3Cc4ccccc4C3)nc3ccccc23)cc1` [Compound 130, N-Benzyl-2-(isoindolin-2-yl)quinazolin-4-amine], in test [1], the “LORA (TB growth inhibition, MIC)” value is “−”. Also, the MIC in test [2] is under 10 µM.
Take `c1ccc(CNc2nc(NC3Cc4ccccc4C3)nc3ccccc23)cc1` [Compound 131, N^4-Benzyl-N^2-(2,3-dihydro-1H-inden-2-yl)quinazoline-2,4-diamine]: the MIC in test [1] and in test [2] was under 10 µM in each case.
On to `c1ccc(CNc2nc(N3CCC(c4ccccc4)CC3)nc3ccccc23)cc1` [Compound 132, N-Benzyl-2-(4-phenylpiperidin-1-yl)quinazolin-4-amine hydrochloride], for which the MIC in test [1] and in test [2] was under 10 µM in each case.
`c1ccc(CNc2nc(N3CCN(c4ccccc4)CC3)nc3ccccc23)cc1` [Compound 133, N-Benzyl-2-(4-phenylpiperazin-1-yl)quinazolin-4-amine hydrochloride]: the MIC is 10 to 50 µM in test [1] and under 10 µM in test [2].
The matching figures for `Clc1ccc(N2CCN(c3nc(NCc4ccccc4)c4ccccc4n3)CC2)cc1` [Compound 134, N-Benzyl-2-(4-(4-chlorophenyl)piperazin-1-yl)quinazolin-4-amine hydrochloride]: 10 to 50 µM and under 10 µM.
As for `FC(F)(F)c1ccc(N2CCN(c3nc(NCc4ccccc4)c4ccccc4n3)CC2)cc1` [Compound 135, N-Benzyl-2-(4-(4-(trifluoromethyl)phenyl)piperazin-1-yl)quinazolin-4-amine hydrochloride], the MIC in test [1] was 10 to 50 µM; in test [2], under 10 µM.
For `COc1ccc(N2CCN(c3nc(NCc4ccccc4)c4ccccc4n3)CC2)cc1` [Compound 136, N-Benzyl-2-(4-(4-methoxyphenyl)piperazin-1-yl)quinazolin-4-amine hydrochloride] the same measures were 10 to 50 µM and under 10 µM.
